Reference: patent US20260297081A1, “COMPOUNDS AND METHODS OF TREATING CANCERS” (Cullgen Inc., priority 2023, published 2026)

What was measured:
Type in all cases: cell-based
T47D cells = assay: Anti-proliferation (viability) of ER+ breast cancer T47D cells, 6 days (Table 7, FIG. 2B); settings: Homo sapiens, 144 h; T47D cells, 6 days, 10-point serial dilution; read-out: GI IC50 in T47D
Method in brief: (§1)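 Viability is read after treatment with compounds titrated over ten serial dilution points, with exposure lasting three days for the NSCLC line and six days for the breast cancer line.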

CDK4 = CDK4 (Homo sapiens, UniProt P11802+Q16531); assay: CDK4 percentage degradation in Calu-1 cells (Table 6); set-up: Cells that express cyclin D1-3 and CDK4/6 proteins were treated with heterobifunctional compounds; endogenous in cells; host or cells: Calu-1; settings: 16 hours; for inhibition at 0.04 µM: 40 nM; for inhibition at 0.2 µM: 200 nM
Method in brief: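 Calu-1 cells exposed to heterobifunctional compounds at 40 nM or 200 nM for 16 h. Cyclin D1 and CDK4 levels measured by Western blot of RIPA lysates (BCA-normalised loading), bands quantified by densitometry and expressed as percentage degradation.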

MCF7 cells = assay: Anti-proliferation (viability) of MCF7 cells (Table 7, FIG. 2B); settings: Homo sapiens, MCF7, MCF7 cells, 3-6 days, 10-point serial dilution; read-out: GI IC50 in MCF-7
Calu-1 cells = assay: Anti-proliferation (viability) of NSCLC Calu-1 cells, 3 days (Table 7, FIG. 2B); settings: Homo sapiens, 72 h; Calu-1 cells, 3 days, 10-point serial dilution; read-out: GI IC50 in Calu-1
Method in brief: as §1

Chain of CDK4 (P11802 2-303 limits assumed): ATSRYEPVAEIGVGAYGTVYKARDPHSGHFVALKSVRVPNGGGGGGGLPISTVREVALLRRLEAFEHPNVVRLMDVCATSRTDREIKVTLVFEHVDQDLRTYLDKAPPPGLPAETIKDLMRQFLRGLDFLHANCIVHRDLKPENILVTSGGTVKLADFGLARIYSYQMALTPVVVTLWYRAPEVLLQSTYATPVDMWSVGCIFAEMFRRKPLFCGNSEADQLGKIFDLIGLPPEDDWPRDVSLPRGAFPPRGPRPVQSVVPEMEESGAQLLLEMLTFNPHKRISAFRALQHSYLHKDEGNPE
Chain of CDK4 (P24385 whole entry partner): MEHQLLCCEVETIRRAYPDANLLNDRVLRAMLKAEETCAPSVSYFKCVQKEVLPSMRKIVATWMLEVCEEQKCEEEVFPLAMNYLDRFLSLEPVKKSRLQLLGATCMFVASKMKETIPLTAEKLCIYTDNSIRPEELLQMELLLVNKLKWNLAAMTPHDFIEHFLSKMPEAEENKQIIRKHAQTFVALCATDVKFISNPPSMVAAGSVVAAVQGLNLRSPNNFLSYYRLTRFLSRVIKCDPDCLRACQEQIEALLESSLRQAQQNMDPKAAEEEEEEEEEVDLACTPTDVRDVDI
Chain of CDK4 (Q16531 2-1140 limits assumed): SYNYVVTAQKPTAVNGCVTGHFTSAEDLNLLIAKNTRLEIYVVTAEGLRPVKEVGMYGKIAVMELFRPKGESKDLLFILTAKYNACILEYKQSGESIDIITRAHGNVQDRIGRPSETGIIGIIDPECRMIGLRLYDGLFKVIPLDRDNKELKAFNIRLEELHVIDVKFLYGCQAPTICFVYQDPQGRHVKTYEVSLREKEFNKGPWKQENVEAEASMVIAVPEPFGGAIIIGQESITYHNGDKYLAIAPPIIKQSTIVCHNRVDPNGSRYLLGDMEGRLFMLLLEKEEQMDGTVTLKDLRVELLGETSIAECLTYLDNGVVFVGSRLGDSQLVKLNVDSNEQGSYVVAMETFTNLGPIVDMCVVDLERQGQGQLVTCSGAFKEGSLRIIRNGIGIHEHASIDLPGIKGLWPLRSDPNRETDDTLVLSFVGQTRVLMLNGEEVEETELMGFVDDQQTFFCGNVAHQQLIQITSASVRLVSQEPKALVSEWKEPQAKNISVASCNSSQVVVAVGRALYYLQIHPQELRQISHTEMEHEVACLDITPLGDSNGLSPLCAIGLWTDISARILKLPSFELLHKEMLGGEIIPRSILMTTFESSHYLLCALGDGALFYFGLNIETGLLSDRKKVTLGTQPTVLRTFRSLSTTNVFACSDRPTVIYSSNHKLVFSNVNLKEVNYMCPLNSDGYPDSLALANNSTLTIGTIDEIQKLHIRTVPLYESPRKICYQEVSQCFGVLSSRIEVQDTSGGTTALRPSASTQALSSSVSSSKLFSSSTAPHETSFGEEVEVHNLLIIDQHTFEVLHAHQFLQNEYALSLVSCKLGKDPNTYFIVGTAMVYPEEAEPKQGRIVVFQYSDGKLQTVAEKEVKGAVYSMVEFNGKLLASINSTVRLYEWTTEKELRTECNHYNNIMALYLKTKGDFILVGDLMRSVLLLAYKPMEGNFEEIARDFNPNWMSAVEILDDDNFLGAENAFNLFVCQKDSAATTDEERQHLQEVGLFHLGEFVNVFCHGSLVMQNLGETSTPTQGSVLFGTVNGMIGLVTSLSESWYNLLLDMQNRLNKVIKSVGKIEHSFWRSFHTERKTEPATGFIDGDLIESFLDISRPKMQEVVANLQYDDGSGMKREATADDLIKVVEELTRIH

IC50 (T47D cells)	inhibition at 0.04 µM (CDK4)	inhibition at 0.2 µM (CDK4)	IC50 (MCF7 cells)	IC50 (Calu-1 cells)	SMILES
50 to 100 nM	50 to 80%	50 to 80%	< 50 nM	≤ 10 nM	CNc1ccc(C(=O)Nc2cc(C)n(C)n2)c(NCCCCCNC(=O)CN2CCN(c3ccc(Nc4ncc5c(C)c(C(C)=O)c(=O)n(C6CCCC6)c5n4)nc3)CC2)n1 [CPD-50, 2-((5-(2-(4-(6-((6-acetyl-8-cyclopentyl-5-methyl-7-oxo-7,8-dihydropyrido[2,3-d]pyrimidin-2-yl)amino)pyridin-3-yl)piperazin-1-yl)acetamido)pentyl)amino)-N-(1,5-dimethyl-1H-pyrazol-3-yl)-6-(methylamino)nicotinamide]
50 to 100 nM	50 to 80%	50 to 80%	50 to 100 nM	≤ 10 nM	CNc1ccc(C(=O)Nc2cccc(C3CC3)n2)c(NCCCCCNC(=O)CN2CCN(c3ccc(Nc4ncc5c(C)c(C(C)=O)c(=O)n(C6CCCC6)c5n4)nc3)CC2)n1 [CPD-51, 2-((5-(2-(4-(6-((6-Acetyl-8-cyclopentyl-5-methyl-7-oxo-7,8-dihydropyrido[2,3-d]pyrimidin-2-yl)amino)pyridin-3-yl)piperazin-1-yl)acetamido)pentyl)amino)-N-(6-cyclopropylpyridin-2-yl)-6-(methylamino)nicotinamide]
50 to 100 nM	50 to 80%	50 to 80%	< 50 nM	≤ 10 nM	CCc1ccc(C(=O)Nc2ccc(N(C)C)nn2)c(NCCCCCNC(=O)CN2CCN(c3ccc(Nc4ncc5c(C)c(C(C)=O)c(=O)n(C6CCCC6)c5n4)nc3)CC2)n1 [CPD-54, 2-((5-(2-(4-(6-((6-Acetyl-8-cyclopentyl-5-methyl-7-oxo-7,8-dihydropyrido[2,3-d]pyrimidin-2-yl)amino)pyridin-3-yl)piperazin-1-yl)acetamido)pentyl)amino)-N-(6-(dimethylamino)pyridazin-3-yl)-6-ethylnicotinamide]
≤ 50 nM	> 80%	> 80%	< 50 nM	≤ 10 nM	CNc1ccc(C(=O)Nc2ccc(N(C)C)nn2)c(NC2CC3(C2)CN(C(=O)CCN2CCN(c4ccc(Nc5ncc6c(C)c(C(C)=O)c(=O)n(C7CCCC7)c6n5)nc4)CC2)C3)n1 [CPD-62, 2-((2-(3-(4-(6-((6-Acetyl-8-cyclopentyl-5-methyl-7-oxo-7,8-dihydropyrido[2,3-d]pyrimidin-2-yl)amino)pyridin-3-yl)piperazin-1-yl)propanoyl)-2-azaspiro[3.3]heptan-6-yl)amino)-N-(6-(dimethylamino)pyridazin-3-yl)-6-(methylamino)nicotinamide]
≤ 50 nM	> 80%	> 80%	< 50 nM	≤ 10 nM	CC(=O)c1c(C)c2cnc(Nc3ccc(N4CCN(CC(=O)NCCCCCNc5nc(C(C)C)ccc5C(=O)Nc5ccc(N(C)C)nn5)CC4)cn3)nc2n(C2CCCC2)c1=O [CPD-63, 2-((5-(2-(4-(6-((6-Acetyl-8-cyclopentyl-5-methyl-7-oxo-7,8-dihydropyrido[2,3-d]pyrimidin-2-yl)amino)pyridin-3-yl)piperazin-1-yl)acetamido)pentyl)amino)-N-(6-(dimethylamino)pyridazin-3-yl)-6-isopropylnicotinamide]
50 to 100 nM	50 to 80%	50 to 80%	> 100 nM	≤ 10 nM	[2H]C([2H])([2H])Nc1ccc(C(=O)Nc2ccc(N(C)C)nn2)c(NCCCCCNC(=O)CN2CCN(c3ccc(Nc4ncc5c(C)c(C(C)=O)c(=O)n(C6CCCC6)c5n4)nc3)CC2)n1 [CPD-66, 2-((5-(2-(4-(6-((6-Acetyl-8-cyclopentyl-5-methyl-7-oxo-7,8-dihydropyrido[2,3-d]pyrimidin-2-yl)amino)pyridin-3-yl)piperazin-1-yl)acetamido)pentyl)amino)-N-(6-(dimethylamino)pyridazin-3-yl)-6-((methyl-d3)amino)nicotinamide]
50 to 100 nM	50 to 80%	50 to 80%	50 to 100 nM	10 to 50 nM	CNc1ccc(C(=O)Nc2ccc(N(C)C)nn2)c(NC[C@H]2CC[C@H](NC(=O)CN3CCN(c4ccc(Nc5ncc6c(C)c(C(C)=O)c(=O)n(C7CCCC7)c6n5)nc4)CC3)CC2)n1 [CPD-73]
≤ 50 nM	50 to 80%	50 to 80%	< 50 nM	≤ 10 nM	CNc1ccc(C(=O)Nc2ccc(N(C)C)nn2)c(NC2CC(CNC(=O)CN3CCN(c4ccc(Nc5ncc6c(C)c(C(C)=O)c(=O)n(C7CCCC7)c6n5)nc4)CC3)C2)n1 (stereo not shown) [CPD-79, 2-((3-((2-(4-(6-((6-Acetyl-8-cyclopentyl-5-methyl-7-oxo-7,8-dihydropyrido[2,3-d]pyrimidin-2-yl)amino)pyridin-3-yl)piperazin-1-yl)acetamido)methyl)cyclobutyl)amino)-N-(6-(dimethylamino)pyridazin-3-yl)-6-(methylamino)nicotinamide]
50 to 100 nM	< 30%	< 30%	> 100 nM	10 to 50 nM	CNc1ccc(C(=O)Nc2ccc(N(C)C)nn2)c(NC2CC3(C2)CC(OCC(=O)N2CCN(c4ccc(Nc5ncc6c(C)c(C(C)=O)c(=O)n(C7CCCC7)c6n5)nc4)CC2)C3)n1 (stereo not shown) [CPD-84, 2-((6-(2-(4-(6-((6-Acetyl-8-cyclopentyl-5-methyl-7-oxo-7,8-dihydropyrido[2,3-d]pyrimidin-2-yl)amino)pyridin-3-yl)piperazin-1-yl)-2-oxoethoxy)spiro[3.3]heptan-2-yl)amino)-N-(6-(dimethylamino)pyridazin-3-yl)-6-(methylamino)nicotinamide]
50 to 100 nM	50 to 80%	> 80%	< 50 nM	≤ 10 nM	CNc1ccc(C(=O)Nc2ccc(N(C)C)nn2)c(NC2CC(CC(=O)NCCN3CCN(c4ccc(Nc5ncc6c(C)c(C(C)=O)c(=O)n(C7CCCC7)c6n5)nc4)CC3)C2)n1 (stereo not shown) [CPD-101, 2-((3-(2-((2-(4-(6-((6-Acetyl-8-cyclopentyl-5-methyl-7-oxo-7,8-dihydropyrido[2,3-d]pyrimidin-2-yl)amino)pyridin-3-yl)piperazin-1-yl)ethyl)amino)-2-oxoethyl)cyclobutyl)amino)-N-(6-(dimethylamino)pyridazin-3-yl)-6-(methylamino)nicotinamide]
50 to 100 nM	> 80%	> 80%	> 100 nM	≤ 10 nM	CNc1ccc(C(=O)Nc2cccc(C3CC3)n2)c(NC2CC3(C2)CN(C(=O)CCN2CCN(c4ccc(Nc5ncc6c(C)c(C(C)=O)c(=O)n(C7CCCC7)c6n5)nc4)CC2)C3)n1 [CPD-103, 2-((2-(3-(4-(6-((6-Acetyl-8-cyclopentyl-5-methyl-7-oxo-7,8-dihydropyrido[2,3-d]pyrimidin-2-yl)amino)pyridin-3-yl)piperazin-1-yl)propanoyl)-2-azaspiro[3.3]heptan-6-yl)amino)-N-(6-cyclopropylpyridin-2-yl)-6-(methylamino)nicotinamide]
≤ 50 nM	50 to 80%	50 to 80%	> 100 nM	≤ 10 nM	CNc1ccc(C(=O)Nc2ccc(N(C)C)nn2)c(NC2CC3(C2)CN(C(=O)C2(CN4CCN(c5ccc(Nc6ncc7c(C)c(C(C)=O)c(=O)n(C8CCCC8)c7n6)nc5)CC4)CC2)C3)n1 [CPD-115, 2-((2-(1-((4-(6-((6-Acetyl-8-cyclopentyl-5-methyl-7-oxo-7,8-dihydropyrido[2,3-d]pyrimidin-2-yl)amino)pyridin-3-yl)piperazin-1-yl)methyl)cyclopropane-1-carbonyl)-2-azaspiro[3.3]heptan-6-yl)amino)-N-(6-(dimethylamino)pyridazin-3-yl)-6-(methylamino)nicotinamide]
50 to 100 nM	50 to 80%	50 to 80%	> 100 nM	≤ 10 nM	CNc1ccc(C(=O)Nc2cc(C)n(C)n2)c(NC2CC3(C2)CN(C(=O)CCN2CCN(c4ccc(Nc5ncc6c(C)c(C(C)=O)c(=O)n(C7CCCC7)c6n5)nc4)CC2)C3)n1 [CPD-129, 2-((2-(3-(4-(6-((6-Acetyl-8-cyclopentyl-5-methyl-7-oxo-7,8-dihydropyrido[2,3-d]pyrimidin-2-yl)amino)pyridin-3-yl)piperazin-1-yl)propanoyl)-2-azaspiro[3.3]heptan-6-yl)amino)-N-(1,5-dimethyl-1H-pyrazol-3-yl)-6-(methylamino)nicotinamide]
≥ 100 nM	30 to 50%	50 to 80%	< 50 nM	10 to 50 nM	CNc1ccc(C(=O)Nc2cn(C)c(C3CC3)n2)c(NC2CC3(CC(NC(=O)CN4CCN(c5ccc(Nc6ncc7c(C)c(C(C)=O)c(=O)n(C8CCCC8)c7n6)nc5)CC4)C3)C2)n1 (stereo not shown) [CPD-135, 2-((6-(2-(4-(6-((6-Acetyl-8-cyclopentyl-5-methyl-7-oxo-7,8-dihydropyrido[2,3-d]pyrimidin-2-yl)amino)pyridin-3-yl)piperazin-1-yl)acetamido)spiro[3.3]heptan-2-yl)amino)-N-(2-cyclopropyl-1-methyl-1H-imidazol-4-yl)-6-(methylamino)nicotinamide]
